From EP0311002A2, “Anthracyclin derivatives, a method for their preparation and their use as a drug” (HOECHST AKTIENGESELLSCHAFT, priority 1987, dated 1989)

Test: Qualitative solubility in solvents
Type: physicochemical

Löslichkeit (in Methanol, Ethylacetat, Chloroform und Toluol): leicht löslich | Löslichkeit (in Wasser und Hexan): unlöslich
Substance: 5‴-Epi-Cytorhodin S
